# Laboratory results as given in patent US11896580B2, “Composition for improving milk quality and preparation method and application thereof” (CHINA AGRICULTURAL UNIVERSITY, priority 2020, dated 2024).
# Key:
# [1] = test system: Holstein cows having somatic cell counts of 300,000/mL to 1,000,000/mL; experiment: Analysis of the DHI indicators of milk after subcutaneous injection of melatonin; format: in vivo
# Source text: (1) According to the monthly DHI test reports from the dairy farm, Holstein cows having somatic cell counts of 300,000/mL to 1,000,000/mL are selected to be fed separately, and are ensured to have no significant difference in physical health. Season groups: spring n=90, summer n=74, autumn n=83, winter n=81 (number of cows). Age groups: 2-year-old n=23; 3-year-old n=80; 4-year-old n=66; 5-year-old n=56; 6-year-old n=27; 7-year-old n=19 (number of cows). Lactation period groups: peak-lactation n=15, mid-lactation n=38, end-lactation n=59 (number of cows) (initial-lactation: days 1-15 after calving; peak-lactation: days 16-100 after calving; mid-lactation: days 101-200 after calving; end-lactation: day 201 after calving to weaning).
# (2) The dairy cows having high somatic cell counts are injected with 2 mL melatonin solution every day for 4 consecutive days in each month. 15 days after the injection, fresh milk was collected and stored in 50 mL centrifuge tubes, and was tested for the changes in somatic cell counts. The cows were fed with total mixed ration, and were fed three times at 06:00, 12:00, and 18:00 respectively. Then, the cows entered the sports ground to move freely, drink water and rest.
# (3) The sampling bottles were numbered and added with 2-3 drops of potassium dichromate saturated solution, and were used for collecting the milk samples from the milk by the first milking of the cows. The milk sample for each cow was in a volume of 40 mL and placed in a centrifuge tube. After sampling, all the remaining milk was drained from the tubes which were cleaned to avoid contamination between the samples. The samples were stored at 2-7° C. The instrument for measuring the DHI indicators is Milkscan FT+&FC automatic milk compositional analyzer and somatic cell counter. The measurement was carried out in the National Laboratory for Preparation of Standard Materials of DHI.
# cows = experiment: Blood indicators of cows after injection of melatonin; settings: in vivo
# [2] = 2-year-old cows, after injection
# [3] = 3-year-old cows, after injection
# [4] = 4-year-old cows, after injection
# [5] = 5-year-old cows, after injection
# [6] = 6-year-old cows, after injection
# [7] = 7-year-old cows, after injection
# [8] = peak-lactation, after injection
compound,measurement,setting,value
COc1ccc2[nH]cc(CCNC(C)=O)c2c1 [melatonin],dry matter contents,[1]; [2],13.87%±0.27
same,fat contents,[1]; [2],4.54%±0.26
same,lactose contents,[1]; [2],5.19%±0.03
same,milk production,[1]; [2],32.12 ± 1.63 kg/day
same,protein contents,[1]; [2],3.41%±0.09
same,somatic cell scores,[1]; [2],3.87±0.33
same,urea nitrogen contents,[1]; [2],13.90 ± 0.80 mg/dL
same,dry matter contents,[1]; [3],13.57%±0.13
same,fat contents,[1]; [3],4.36%±0.11
same,lactose contents,[1]; [3],5.03%±0.02
same,milk production,[1]; [3],32.11 ± 0.96 kg/day
same,protein contents,[1]; [3],3.44%±0.04
same,somatic cell scores,[1]; [3],4.31±0.18
same,urea nitrogen contents,[1]; [3],13.58 ± 0.46 mg/dL
same,dry matter contents,[1]; [4],14.18%±0.15
same,fat contents,[1]; [4],4.69%±0.13
same,lactose contents,[1]; [4],4.94%±0.03
same,milk production,[1]; [4],30.03 ± 1.22 kg/day
same,protein contents,[1]; [4],3.66%±0.06
same,somatic cell scores,[1]; [4],4.68±0.18
same,urea nitrogen contents,[1]; [4],13.32 ± 0.49 mg/dL
same,dry matter contents,[1]; [5],13.87%±0.18
same,fat contents,[1]; [5],4.62%±0.16
same,lactose contents,[1]; [5],4.86%±0.05
same,milk production,[1]; [5],33.56 ± 1.52 kg/day
same,protein contents,[1]; [5],3.55%±0.07
same,somatic cell scores,[1]; [5],4.04±0.19
same,urea nitrogen contents,[1]; [5],14.09 ± 0.59 mg/dL
same,dry matter contents,[1]; [6],14.13%±0.24
same,fat contents,[1]; [6],5.27%±0.21
same,lactose contents,[1]; [6],4.91%±0.06
same,milk production,[1]; [6],35.19 ± 2.67 kg/day
same,protein contents,[1]; [6],3.38%±0.07
same,somatic cell scores,[1]; [6],5.19±0.27
same,urea nitrogen contents,[1]; [6],15.79 ± 0.94 mg/dL
same,dry matter contents,[1]; [7],13.48%±0.32
same,fat contents,[1]; [7],4.66%±0.37
same,lactose contents,[1]; [7],4.93%±0.06
same,milk production,[1]; [7],30.34 ± 2.08 kg/day
same,protein contents,[1]; [7],3.32%±0.07
same,somatic cell scores,[1]; [7],5.03±0.29
same,urea nitrogen contents,[1]; [7],15.11 ± 1.34 mg/dL
same,dry matter contents,"[1]; autumn, after injection",14.10%±0.14
same,fat contents,"[1]; autumn, after injection",4.68%±0.13
same,lactose contents,"[1]; autumn, after injection",5.07%±0.04
same,milk production,"[1]; autumn, after injection",32.07 ± 1.05 kg/day
same,protein contents,"[1]; autumn, after injection",3.64%±0.05
same,urea nitrogen contents,"[1]; autumn, after injection",11.72 ± 0.36 mg/dL
same,somatic cell scores,"[1]; autumn, after injection (second value of before VS after)",4.55±0.16
same,dry matter contents,"[1]; end-lactation, after injection",13.47%±0.13
same,fat contents,"[1]; end-lactation, after injection",4.18%±0.12
same,milk production,"[1]; end-lactation, after injection",31.25 ± 1.29 kg/day
same,protein contents,"[1]; end-lactation, after injection",3.40%±0.04
same,somatic cell scores,"[1]; end-lactation, after injection",1.99±0.15
same,urea nitrogen contents,"[1]; end-lactation, after injection",12.04 ± 0.38 mg/dL
same,dry matter contents,"[1]; mid-lactation, after injection",13.56%±0.14
same,fat contents,"[1]; mid-lactation, after injection",4.22%±0.11
same,lactose contents,"[1]; mid-lactation, after injection",5.19%±0.02
same,milk production,"[1]; mid-lactation, after injection",39.08 ± 1.79 kg/day
same,protein contents,"[1]; mid-lactation, after injection",3.45%±0.05
same,somatic cell scores,"[1]; mid-lactation, after injection",2.00±0.17
same,urea nitrogen contents,"[1]; mid-lactation, after injection",12.11 ± 0.54 mg/dL
same,dry matter contents,[1]; [8],13.17%±0.29
same,fat contents,[1]; [8],3.87%±0.26
same,milk production,[1]; [8],38.80 ± 2.06 kg/day
same,protein contents,[1]; [8],3.35%±0.06
same,somatic cell scores,[1]; [8],2.04±0.24
same,urea nitrogen contents,[1]; [8],11.12 ± 0.64 mg/dL
same,dry matter contents,"[1]; spring, after injection",13.92%±0.15
same,fat contents,"[1]; spring, after injection",4.78%±0.14
same,lactose contents,"[1]; spring, after injection",4.94%±0.02
same,milk production,"[1]; spring, after injection",32.11 ± 1.15 kg/day
same,protein contents,"[1]; spring, after injection",3.49%±0.04
same,urea nitrogen contents,"[1]; spring, after injection",14.35 ± 0.45 mg/dL
same,somatic cell scores,"[1]; spring, after injection (second value of before VS after), 2 mL/day s.c., 4 days, milk 15 days after",4.89±0.15
same,dry matter contents,"[1]; summer, after injection",13.42%±0.13
same,fat contents,"[1]; summer, after injection",4.20%±0.12
same,lactose contents,"[1]; summer, after injection",5.06%±0.02
same,milk production,"[1]; summer, after injection",32.69 ± 1.00 kg/day
same,protein contents,"[1]; summer, after injection",3.45%±0.04
same,urea nitrogen contents,"[1]; summer, after injection",14.19 ± 0.50 mg/dL
same,somatic cell scores,"[1]; summer, after injection (second value of before VS after)",4.09±0.20
same,somatic cell score reduced by,"[1]; whole year, n=328, p<0.01",63.54%
same,fat content of milk reduced by,"[1]; whole year, n=328, p<0.05",11.31%
same,lactose content increased to,"[1]; whole year, n=328, p<0.05",4.74%
same,protein content of milk increased by,"[1]; whole year, n=328, p<0.05",3.79%
same,urea nitrogen content of milk reduced by,"[1]; whole year, n=328, p<0.05",11.08%
same,dry matter contents,"[1]; winter, after injection",13.65%±0.12
same,fat contents,"[1]; winter, after injection",4.75%±0.11
same,lactose contents,"[1]; winter, after injection",4.84%±0.04
same,milk production,"[1]; winter, after injection",31.82 ± 1.17 kg/day
same,protein contents,"[1]; winter, after injection",3.43%±0.05
same,urea nitrogen contents,"[1]; winter, after injection",15.94 ± 0.51 mg/dL
same,somatic cell scores,"[1]; winter, after injection (second value of before VS after)",4.34±0.17
same,concentration of alanine aminotransferase,cows,increase
same,concentration of albumin,cows,increase
same,concentration of cortisol,cows,reduce
same,concentration of serum lactate dehydrogenase,cows,increase
same,number of lymphocytes,cows,reduce
same,number of neutrophils,cows,reduce
same,number of white blood cells,cows,reduce
